These are literature values, as cited in PMC7904743, “WIDOCK: a reactive docking protocol for virtual screening of covalent inhibitors” (Journal of Computer-Aided Molecular Design, 2021).

Like-named read-outs stand apart in the source and are kept apart here.

The subject of one series is NUDT7. To be noted: protein labeling at 200 μM; experimental actives if % labeling higher than 50%; cited from earlier work.
For series [1] the following is noted: thiol reactivity, cited from earlier work.
The subject of another series is OTUB2. To be noted: experimental actives if % labeling higher than 50%; cited from earlier work.
The mark [2] stands for this setting: natural log of average rate constant k.
Where [3] appears, read: natural logarithm of average rate constant.

Regarding `Cc1ccc(C2=NN(C(=O)CCl)C(c3ccco3)C2)o1` (centres unmarked) [PCM-0102102, Cc1ccc(C2=NN(C(=O)CCl)C(c3ccco3)C2)o1], in the series with NUDT7, the NUDT7 % labeling was 20%. For the same compound, the “ln(avg k)” value in series [1] (setting [2]) and in series [1] (setting [3]) was -14.412 in each case. The OTUB2 % labeling in the series with OTUB2 is 0%.
Consider `CCN1CCC(NC(=O)CCl)CC1` [PCM-0102103, CCN1CCC(NC(=O)CCl)CC1], for which the NUDT7 % labeling in the series with NUDT7 is reported as 0%. The “ln(avg k)” value in series [1] (setting [2]) and in series [1] (setting [3]) was -15.455 throughout. Also, the OTUB2 % labeling in the series with OTUB2 is on record as 0%.
On to `O=C(CCl)Nc1ccc2c(c1)OC1(CCCCC1)O2` [PCM-0102104, O=C(CCl)Nc1ccc2c(c1)OC1(CCCCC1)O2], for which, in the series on NUDT7, the NUDT7 % labeling was 8%. The “ln(avg k)” value in series [1] (setting [2]) and in series [1] (setting [3]) was -15.658 each time. Also, in the series with OTUB2, the OTUB2 % labeling is given as 47%.
As to `CCN(C(=O)CCl)C1CCS(=O)(=O)C1` (centres unmarked) [PCM-0102105, CCN(C(=O)CCl)C1CCS(=O)(=O)C1], the NUDT7 % labeling in the series on NUDT7 is recorded as 0%. The “ln(avg k)” value in series [1] (setting [2]) and in series [1] (setting [3]) was -15.384 each time. For the same compound, the OTUB2 % labeling in the series with OTUB2 is on record as 0%.
For the compound `CC(NC(=O)CCl)c1ccccc1Cl` (centres unmarked) [PCM-0102110, CC(NC(=O)CCl)c1ccccc1Cl], the NUDT7 % labeling in the series with NUDT7 is on record as 0%. Also, the “ln(avg k)” value in series [1] (setting [2]) and in series [1] (setting [3]) was -16.453 in each case. The OTUB2 % labeling in the series on OTUB2 is reported as 25%.
Take `O=C(CCl)Nc1ccc(Cl)c(Cl)c1` [PCM-0102112, O=C(CCl)Nc1ccc(Cl)c(Cl)c1]: the NUDT7 % labeling in the series on NUDT7 was 18%. The “ln(avg k)” value in series [1] (setting [2]) and in series [1] (setting [3]) was -15.433 in each case. Further, in the series with OTUB2, the OTUB2 % labeling is reported as 30%.
`CNC(=O)c1cccc(NC(=O)CCl)c1` [PCM-0102113, CNC(=O)c1cccc(NC(=O)CCl)c1]: the NUDT7 % labeling with NUDT7 is recorded as 0%. For the same compound, the “ln(avg k)” value in series [1] (setting [2]) and in series [1] (setting [3]) was -15.492 in each case. Besides, in the series on OTUB2, the OTUB2 % labeling was 0%.
For the compound `CC(=O)Nc1ccc(NC(=O)CCl)cc1` [PCM-0102114, CC(=O)Nc1ccc(NC(=O)CCl)cc1], in the series with NUDT7, the NUDT7 % labeling is on record as 0%. Besides, the “ln(avg k)” value in series [1] (setting [2]) and in series [1] (setting [3]) was -16.157 each time. The OTUB2 % labeling with OTUB2 was 0%.
As for `Cc1cccc(NC(=O)CCl)c1` [PCM-0102116, Cc1cccc(NC(=O)CCl)c1], in the series on NUDT7, the NUDT7 % labeling is given as 0%. For the same compound, the “ln(avg k)” value in series [1] (setting [2]) and in series [1] (setting [3]) was -15.855 each time. The OTUB2 % labeling in the series with OTUB2 is 11%.
With `CC(NC(=O)CCl)c1cc2ccccc2o1` (centres unmarked) [PCM-0102117, CC(NC(=O)CCl)c1cc2ccccc2o1], the NUDT7 % labeling with NUDT7 is reported as 12%. In addition, the “ln(avg k)” value in series [1] (setting [2]) and in series [1] (setting [3]) was -16.443 throughout. Also, in the series with OTUB2, the OTUB2 % labeling is 41%.
Consider `O=C(CCl)NC12CC3CC(CC(C3)C1)C2` [PCM-0102118, O=C(CCl)NC12CC3CC(CC(C3)C1)C2], for which, in the series on NUDT7, the NUDT7 % labeling is 0%. The “ln(avg k)” value in series [1] (setting [2]) and in series [1] (setting [3]) was -16.476 in each case. For the same compound, in the series with OTUB2, the OTUB2 % labeling was 0%.
For `Cc1ccc(NC(=O)NC(=O)CCl)cc1C` [PCM-0102119, Cc1ccc(NC(=O)NC(=O)CCl)cc1C], in the series with NUDT7, the NUDT7 % labeling was 9%. The “ln(avg k)” value in series [1] (setting [2]) and in series [1] (setting [3]) was -16.034 in each case. For the same compound, the OTUB2 % labeling with OTUB2 is listed as 0%.
For the compound `O=C(CCl)Nc1ccc(Cl)cc1` [PCM-0102120, O=C(CCl)Nc1ccc(Cl)cc1], in the series on NUDT7, the NUDT7 % labeling was 18%. The “ln(avg k)” value in series [1] (setting [2]) and in series [1] (setting [3]) was -15.805 in each case. In addition, the OTUB2 % labeling in the series with OTUB2 is recorded as 23%.
For `O=C(CCl)N1CCN(S(=O)(=O)c2ccc(Cl)s2)CC1` [PCM-0102121, O=C(CCl)N1CCN(S(=O)(=O)c2ccc(Cl)s2)CC1], in the series on NUDT7, the NUDT7 % labeling was 15%. Further, the “ln(avg k)” value in series [1] (setting [2]) and in series [1] (setting [3]) was -15.220 each time. The OTUB2 % labeling in the series on OTUB2 is given as 0%.
